Experiment [1] has as its system CD34-positive (myeloid/lymphoid) cell. Kind of experiment: Expansion-promoting activity against human CD34+ cells assessed as increase in Lin-CD34+CD38-CD45RA-CD49f-CD90- multipotent progenitor cells measured after 4 days by FACS analysis. It is filed as functional, cell-based. (Flow cytometry measures light scatter and fluorescence of single cells or particles in a stream.)

Experiment [2] is described as follows: Expansion of human CD34+cells measured after 4 days by FACS analysis. The format is functional, CD34-positive (myeloid/lymphoid) cell.
Experiment [3] is described as follows: Expansion-promoting activity against human CD34+ cells assessed as increase in Lin-CD34+CD38-CD45RA-CD49f+CD90- multipotent progenitor cells measured after 4 days by FACS analysis relative to control. The format is functional, CD34-positive (myeloid/lymphoid) cell.
Experiment [4] relates to CD34-positive (myeloid/lymphoid) cell. Kind of experiment: Expansion-promoting activity against human CD34+cells assessed as increase in CD34+/CD38- cells measured after 4 days by FACS analysis. The format is functional, cell-based.

This is an account of results in ChEMBL document CHEMBL4665782, “Furostanol Saponins from Trillium tschonoskii Promote the Expansion of Human Cord Blood Hematopoietic Stem and Progenitor Cells” (2020).

Each structure is given as a SMILES string. Active and inactive are the calls of the source. No cut-off for these calls is given here.

Regarding `C[C@H](CC[C@@]1(O)OC2C[C@H]3[C@@H]4C[C@@H](O)[C@@]5(O)C[C@@H](O[C@@H]6O[C@H](CO)[C@@H](O)[C@H](O)[C@H]6O[C@@H]6O[C@@H](C)[C@H](O)[C@@H](O)[C@H]6O)CC[C@]5(C)[C@H]4CC[C@]3(C)[C@@]2(O)[C@@H]1C)CO[C@@H]1O[C@H](CO)[C@@H](O)[C@H](O)[C@H]1O` (some centres undefined), the result in experiment [1] was Active.

In the case of `C[C@H](CC[C@@]1(O)OC2C[C@H]3[C@@H]4C[C@@H](O)[C@@]5(O)C[C@@H](O[C@@H]6O[C@H](CO)[C@@H](O[C@@H]7O[C@@H](C)[C@H](O[C@@H]8O[C@@H](C)[C@H](O)[C@@H](O)[C@H]8O)[C@@H](O)[C@H]7O)[C@H](O)[C@H]6O[C@@H]6O[C@@H](C)[C@H](O)[C@@H](O)[C@H]6O)CC[C@]5(C)[C@H]4CC[C@]3(C)[C@@]2(O)[C@@H]1C)CO[C@@H]1O[C@H](CO)[C@@H](O)[C@H](O)[C@H]1O` (some centres undefined), the entries for the “fold change (FC)” value in experiment [2] and in experiment [3] were 8.4 and 1.8, respectively. Further, in experiment [1], the outcome was Active.

For the molecule `C[C@H](CC[C@@]1(O)OC2C[C@H]3[C@@H]4CC=C5C[C@@H](O[C@@H]6O[C@H](CO)[C@@H](O[C@@H]7O[C@H](CO)[C@H](O)[C@@H](O)[C@H]7O)[C@H](O)[C@H]6O[C@@H]6O[C@@H](C)[C@H](O)[C@@H](O)[C@H]6O)CC[C@]5(C)[C@H]4CC[C@]3(C)[C@@]2(O)[C@@H]1C)CO[C@@H]1O[C@H](CO)[C@@H](O)[C@H](O)[C@H]1O` (some centres undefined), the “fold change (FC)” value in experiment [2] was determined as 8.8; in experiment [3], 1.9. Moreover, the result in experiment [4] and in experiment [1] was Active.

With `C/C(C(=O)CC[C@@H](C)CO[C@@H]1O[C@H](CO)[C@@H](O)[C@H](O)[C@H]1O)=C1/C(=O)C[C@H]2[C@@H]3C(=O)C=C4C[C@@H](O[C@@H]5O[C@H](CO)[C@@H](O[C@@H]6O[C@@H](C)[C@H](O)[C@@H](O)[C@H]6O)[C@H](O)[C@H]5O[C@@H]5O[C@@H](C)[C@H](O)[C@@H](O)[C@H]5O)CC[C@]4(C)[C@H]3CC[C@]12C`, in experiment [4], the outcome was Active.

Regarding `CC1=C2[C@](O)(C[C@H]3[C@@H]4C[C@@H](O)[C@@]5(O)C[C@@H](O[C@@H]6O[C@H](CO)[C@@H](O[C@@H]7O[C@@H](C)[C@H](O[C@@H]8O[C@@H](C)[C@H](O)[C@@H](O)[C@H]8O)[C@@H](O)[C@H]7O)[C@H](O)[C@H]6O[C@@H]6O[C@@H](C)[C@H](O)[C@@H](O)[C@H]6O)CC[C@]5(C)[C@H]4CC[C@]23C)C(C[C@@H](C)CO[C@@H]2O[C@H](CO)[C@@H](O)[C@H](O)[C@H]2O)C1=O` (some centres undefined), the results for the “fold change (FC)” value in experiment [2] and in experiment [3] were 6.7 and 1.3, respectively. Further, the outcome in experiment [4] and in experiment [1] was Active.

Regarding `C[C@H](CCC(=O)[C@@H](C)C1C(=O)C[C@H]2[C@@H]3CC=C4C[C@@H](O[C@@H]5O[C@H](CO)[C@@H](O[C@@H]6O[C@@H](C)[C@H](O)[C@@H](O)[C@H]6O)[C@H](O)[C@H]5O[C@@H]5O[C@@H](C)[C@H](O)[C@@H](O)[C@H]5O)CC[C@]4(C)[C@H]3CC[C@]12C)CO[C@@H]1O[C@H](CO)[C@@H](O)[C@H](O)[C@H]1O` (some centres undefined), the outcome in experiment [4] and in experiment [1] was Active.

Consider `C/C(C(=O)CC[C@@H](C)CO[C@@H]1O[C@H](CO)[C@@H](O)[C@H](O)[C@H]1O)=C1/C(=O)C[C@H]2[C@@H]3CC=C4C[C@@H](O[C@@H]5O[C@H](CO)[C@@H](O[C@@H]6O[C@@H](C)[C@H](O)[C@@H](O)[C@H]6O)[C@H](O)[C@H]5O[C@@H]5O[C@@H](C)[C@H](O)[C@@H](O)[C@H]5O)CC[C@]4(C)[C@H]3CC[C@]12C`, for which the result in experiment [1] was Active.

With `Cc1c(CC[C@@H](C)CO[C@@H]2O[C@H](CO)[C@@H](O)[C@H](O)[C@H]2O)oc2c1[C@@]1(C)CC[C@H]3[C@@H](CC=C4C[C@@H](O[C@@H]5O[C@H](CO)[C@@H](O)[C@H](O)[C@H]5O[C@@H]5O[C@@H](C)[C@H](O)[C@@H](O)[C@H]5O)CC[C@@]43C)[C@@H]1C2`, the figures for the “fold change (FC)” value in experiment [2] and in experiment [3] were 5.5 and 0.9, respectively. The outcome in experiment [4] and in experiment [1] was Active.

In the case of `C/C(C(=O)CC[C@@H](C)CO[C@@H]1O[C@H](CO)[C@@H](O)[C@H](O)[C@H]1O)=C1/C(=O)C[C@H]2[C@@H]3CC=C4C[C@@H](O[C@@H]5O[C@H](CO)[C@@H](O)[C@H](O)[C@H]5O[C@@H]5O[C@@H](C)[C@H](O)[C@@H](O)[C@H]5O)CC[C@]4(C)[C@H]3CC[C@]12C`, the “fold change (FC)” value amounted to 5.7 in experiment [2] and 1 in experiment [3]. Further, the result in experiment [4] and in experiment [1] was Active.

Consider `CC1=C2[C@](O)(C[C@H]3[C@@H]4C[C@@H](O)[C@@]5(O)C[C@@H](O[C@@H]6O[C@H](CO)[C@@H](O[C@@H]7O[C@@H](C)[C@H](O)[C@@H](O)[C@H]7O)[C@H](O)[C@H]6O[C@@H]6O[C@@H](C)[C@H](O)[C@@H](O)[C@H]6O)CC[C@]5(C)[C@H]4CC[C@]23C)C(C[C@@H](C)CO[C@@H]2O[C@H](CO)[C@@H](O)[C@H](O)[C@H]2O)C1=O` (some centres undefined), for which the result in experiment [4] and in experiment [1] was Active.

Turning to `C[C@H](CCC(=O)[C@@H](C)C1C(=O)C[C@H]2[C@@H]3CC=C4C[C@@H](O[C@@H]5O[C@H](CO)[C@@H](O)[C@H](O)[C@H]5O[C@@H]5O[C@@H](C)[C@H](O)[C@@H](O)[C@H]5O)CC[C@]4(C)[C@H]3CC[C@]12C)CO[C@@H]1O[C@H](CO)[C@@H](O)[C@H](O)[C@H]1O` (some centres undefined), the “fold change (FC)” value turned out to be 8.4 in experiment [2] and 1.8 in experiment [3]. Besides, the outcome in experiment [4] and in experiment [1] was Active.

Turning to `Cc1c(CC[C@@H](C)CO[C@@H]2O[C@H](CO)[C@@H](O)[C@H](O)[C@H]2O)oc2c1[C@@]1(C)CC[C@H]3[C@@H](C[C@@H](O)[C@@]4(O)C[C@@H](O[C@@H]5O[C@H](CO)[C@@H](O[C@@H]6O[C@@H](C)[C@H](O[C@@H]7O[C@@H](C)[C@H](O)[C@@H](O)[C@H]7O)[C@@H](O)[C@H]6O)[C@H](O)[C@H]5O[C@@H]5O[C@@H](C)[C@H](O)[C@@H](O)[C@H]5O)CC[C@]34C)[C@@H]1C2`, the “fold change (FC)” value was found to be 7.7 in experiment [2] and 1.6 in experiment [3]. In addition, the outcome in experiment [4] and in experiment [1] was Active.
